This note sets out measurements from patent US20250145585A1, “HETEROCYCLIC INHIBITORS OF IGF-1R FOR TREATMENT OF DISEASE” (HORIZON THERAPEUTICS IRELAND DAC, priority 2023, published 2025).

In the experiment the target is T1, IGF-1R (Homo sapiens, UniProt P08069).
T1 construct: expressed in transfected cells
Put plainly: Example B-1: IGF-1R Assay (PC3 cells stimulated with IGF1, AlphaLISA on cell lysates). It is filed as cell-based. Particulars: compound two hours, IGF1 200 ng/mL for 30 min, read-out: IC50, Biological Activity against IGF-1R (Table B1). In outline: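 PC3 cells serum-starved 2 h, treated 2 h with 3-fold serially diluted compound, then stimulated 30 min with IGF1 (200 ng/mL final). Lysates analysed by AlphaLISA; % inhibition calculated relative to vehicle and EC80 controls, IC50 derived.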

T1 sequence (P08069 31-1367): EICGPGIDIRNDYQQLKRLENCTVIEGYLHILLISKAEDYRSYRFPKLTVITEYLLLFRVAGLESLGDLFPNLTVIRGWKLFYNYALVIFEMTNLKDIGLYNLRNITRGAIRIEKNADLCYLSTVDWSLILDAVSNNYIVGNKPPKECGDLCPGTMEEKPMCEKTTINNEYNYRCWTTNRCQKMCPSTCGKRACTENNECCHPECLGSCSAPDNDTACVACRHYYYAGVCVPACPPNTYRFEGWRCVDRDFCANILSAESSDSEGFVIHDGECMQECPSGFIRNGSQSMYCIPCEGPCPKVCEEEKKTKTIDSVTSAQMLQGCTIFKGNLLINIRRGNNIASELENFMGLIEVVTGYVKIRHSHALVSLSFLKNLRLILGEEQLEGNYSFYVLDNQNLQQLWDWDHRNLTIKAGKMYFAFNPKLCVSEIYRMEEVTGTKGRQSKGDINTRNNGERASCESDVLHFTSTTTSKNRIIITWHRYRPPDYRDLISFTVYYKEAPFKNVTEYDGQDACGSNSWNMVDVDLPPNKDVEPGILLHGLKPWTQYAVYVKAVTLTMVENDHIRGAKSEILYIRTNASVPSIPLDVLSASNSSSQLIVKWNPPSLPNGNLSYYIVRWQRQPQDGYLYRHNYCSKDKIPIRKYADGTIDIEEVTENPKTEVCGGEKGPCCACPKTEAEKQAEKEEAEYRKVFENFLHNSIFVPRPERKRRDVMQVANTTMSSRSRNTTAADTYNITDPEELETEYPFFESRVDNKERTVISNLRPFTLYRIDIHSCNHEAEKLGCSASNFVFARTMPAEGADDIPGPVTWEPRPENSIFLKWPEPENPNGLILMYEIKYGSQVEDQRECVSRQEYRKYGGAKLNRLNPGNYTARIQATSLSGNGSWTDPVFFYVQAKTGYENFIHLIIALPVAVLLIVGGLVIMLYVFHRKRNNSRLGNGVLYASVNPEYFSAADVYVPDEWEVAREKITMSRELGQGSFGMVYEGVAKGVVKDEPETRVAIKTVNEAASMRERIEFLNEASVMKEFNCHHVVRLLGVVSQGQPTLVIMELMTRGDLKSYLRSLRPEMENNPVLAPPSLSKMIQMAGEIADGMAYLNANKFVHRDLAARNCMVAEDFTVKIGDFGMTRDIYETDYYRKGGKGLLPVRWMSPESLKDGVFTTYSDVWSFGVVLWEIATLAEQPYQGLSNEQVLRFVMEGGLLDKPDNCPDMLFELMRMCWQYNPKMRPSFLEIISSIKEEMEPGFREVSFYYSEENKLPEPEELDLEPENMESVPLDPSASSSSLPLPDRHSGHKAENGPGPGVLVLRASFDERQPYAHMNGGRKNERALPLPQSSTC

As a reminder, the IC50 is the concentration at which inhibition is half-maximal. With `CC(C)Nc1cc(CN2C(=O)N(c3ccc(C45CC(C)(C4)C5)cc3)C(=O)C2(C)C)ccn1` [Compound 112, 1-((2-(isopropylamino)pyridin-4-yl)methyl)-5,5-dimethyl-3-(4-(3-methylbicyclo[1.1.1]pentan-1-yl)phenyl)imidazolidine-2,4-dione], the IC50 lay in the range of 2 to 10 µM.
Regarding `CC1(C)C(=O)N(c2ccc(C3(CO)CC3)cc2)C(=O)N1Cc1ccnc(N)c1` [Compound 100, 1-((2-aminopyridin-4-yl)methyl)-3-(4-(1-(hydroxymethyl)cyclopropyl)phenyl)-5,5-dimethylimidazolidine-2,4-dione], the IC50 lay within 0.5 to 2 µM.
The value for `CC(C)(C)c1ccc(N2C(=O)N(Cc3ccnc(NC4CC(F)(F)C4)c3)C(C)(C)C2=O)cc1` [Compound 270, 3-(4-(tert-butyl)phenyl)-1-((2-((3,3-difluorocyclobutyl)amino)pyridin-4-yl)methyl)-5,5-dimethylimidazolidine-2,4-dione] was at most 0.5 µM; that for `CC1(C)CNc2cc(N3C(=O)N(Cc4ccnc(N)c4)C(C)(C)C3=O)ccc21` [Compound 401, 1-((2-aminopyridin-4-yl)methyl)-3-(3,3-dimethylindolin-6-yl)-5,5-dimethylimidazolidine-2,4-dione] was at most 0.5 µM.
For `COCC(C)(C)Nc1cc(CN2C(=O)N(c3ccc(C(C)(C)C)cc3)C(=O)C2(C)C)ccn1` [Compound 274, 3-(4-(tert-butyl)phenyl)-1-((2-((1-methoxy-2-methylpropan-2-yl)amino)pyridin-4-yl)methyl)-5,5-dimethylimidazolidine-2,4-dione] the value was 0.5 to 2 µM; for `CC1(C)Cc2cc(CN3C(=O)N(c4ccc(SC(F)(F)F)cc4)C(=O)C3(C)C)cnc2N1` [Compound 14, 1-((2,2-dimethyl-2,3-dihydro-1H-pyrrolo[2,3-b]pyridin-5-yl)methyl)-5,5-dimethyl-3-(4-((trifluoromethyl)thio)phenyl)imidazolidine-2,4-dione], above 10 µM.
In the case of `CC1(C)C(=O)N(c2ccc(S(F)(F)(F)(F)F)cc2)C(=O)N1Cc1ccnc(N)c1` [Compound 179, 1-((2-aminopyridin-4-yl)methyl)-5,5-dimethyl-3-(4-(pentafluoro-16-sulfanyl)phenyl)imidazolidine-2,4-dione], the IC50 is at most 0.5 µM.
With `CCC(C)Nc1cc(CN2C(=O)N(c3ccc(SC(F)(F)F)cc3)C(=O)C2(C)C)ccn1` (stereo not drawn) [Compound 381, 1-((2-(sec-butylamino)pyridin-4-yl)methyl)-5,5-dimethyl-3-(4-((trifluoromethyl)thio)phenyl)imidazolidine-2,4-dione], the IC50 was at most 0.5 µM.
For the compound “5,5-dimethyl-1-((2-((2-methyl- 3-oxoisoindolin-5- yl)amino)pyridin-4-yl)methyl)- 3-(4- ((trifluoromethyl)thio)phenyl) amidazolidine-2,4-dione [Compound 272]”, the IC50 was at most 0.5 µM.
The value for `Nc1cc(CN2C(=O)N(c3ccc(SC(F)(F)F)cc3)C(=O)[C@@H]2Cc2ccccc2)ccn1` [Compound 289, (S)-1-((2-aminopyridin-4-yl)methyl)-5-benzyl-3-(4-((trifluoromethyl)thio)phenyl)imidazolidine-2,4-dione] was 0.5 to 2 µM; that for `Cc1c[nH]c2ncc(CN3C(=O)N(c4ccc(SC(F)(F)F)cc4)C(=O)C3(C)C)cc12` [Compound 406, 5,5-dimethyl-1-((3-methyl-1H-pyrrolo[2,3-b]pyridin-5-yl)methyl)-3-(4-((trifluoromethyl)thio)phenyl) imidazolidine-2,4-dione] was 2 to 10 µM; that for `CC(C)(C)c1ccc(N2C(=O)N(Cc3ccnc(NC4COC4)c3)C(C)(C)C2=O)cc1` [Compound 275, 3-(4-(tert-butyl)phenyl)-5,5-dimethyl-1-((2-(oxetan-3-ylamino)pyridin-4-yl)methyl)imidazolidine-2,4-dione] was at most 0.5 µM.
On to `CC(C)[C@H]1C(=O)N(c2ccc(S(=O)(=O)C(F)(F)F)cc2)C(=O)N1Cc1ccnc(N)c1` [Compound 300, (S)-1-((2-aminopyridin-4-yl)methyl)-5-isopropyl-3-(4-((trifluoromethyl)sulfonyl)phenyl)imidazolidine-2,4-dione], for which the IC50 is 2 to 10 µM.
With `CC1(C)C(=O)N(c2ccc(SC(F)(F)F)cc2)C(=O)N1Cc1ccnc(NC(=O)c2cccnc2)c1` [Compound 360, N-(4-((5,5-dimethyl-2,4-dioxo-3-(4-((trifluoromethyl)thio)phenyl)imidazolidin-1-yl)methyl)pyridin-2-yl)nicotinamide], the IC50 was at most 0.5 µM.
For `CN1CC(Nc2cc(CN3C(=O)N(c4ccc(C(C)(C)C)cc4)C(=O)C3(C)C)ccn2)C1` [Compound 345, 3-(4-(tert-butyl)phenyl)-5,5-dimethyl-1-((2-((1-methylazetidin-3-yl)amino)pyridin-4-yl)methyl)imidazolidine-2,4-dione], the IC50 is 0.5 to 2 µM.
Turning to `Cn1cc(NC(=O)Nc2cc(CN3C(=O)N(c4ccc(SC(F)(F)F)cc4)C(=O)C3(C)C)ccn2)cn1` [Compound 350, 1-(4-((5,5-dimethyl-2,4-dioxo-3-(4-((trifluoromethyl)thio)phenyl)imidazolidin-1-yl)methyl)pyridin-2-yl)-3-(1-methyl-1H-pyrazol-4-yl)urea], the IC50 was at most 0.5 µM.
With `COC[C@@H](C)Nc1cc(CN2C(=O)N(c3ccc(C(C)(C)C)cc3)C(=O)C2(C)C)ccn1` [Compound 268, (R)-3-(4-(tert-butyl)phenyl)-1-((2-((1-methoxypropan-2-yl)amino)pyridin-4-yl)methyl)-5,5-dimethylimidazolidine-2,4-dione], the IC50 was at most 0.5 µM.
As for `CC1(c2ccc(N3C(=O)N(Cc4ccnc(N)c4)C(C)(C)C3=O)cc2)COC1` [Compound 90, 1-((2-aminopyridin-4-yl)methyl)-5,5-dimethyl-3-(4-(3-methyloxetan-3-yl)phenyl)imidazolidine-2,4-dione], the IC50 lay in the range of 0.5 to 2 µM.
Regarding `CC(C)NC(=O)Nc1cc(CN2C(=O)N(c3ccc(SC(F)(F)F)cc3)C(=O)C2(C)C)ccn1` [Compound 370, 1-(4-((5,5-dimethyl-2,4-dioxo-3-(4-((trifluoromethyl)thio)phenyl)imidazolidin-1-yl)methyl)pyridin-2-yl)-3-isopropylurea], the IC50 was at most 0.5 µM.
For `CC(C)Nc1cc(CN2C(=O)N(c3ccc(C4(F)CC4)cc3)C(=O)C2(C)C)ccn1` [Compound 99, 3-(4-(1-fluorocyclopropyl)phenyl)-1-((2-(isopropylamino)pyridin-4-yl)methyl)-5,5-dimethylimidazolidine-2,4-dione] the value was 0.5 to 2 µM; for `CC(C)Nc1cc(CN2C(=O)N(c3ccc(SC(F)(F)F)cc3)C(=O)C2(C)C)cnn1` [Compound 386, 1-((6-(isopropylamino)pyridazin-4-yl)methyl)-5,5-dimethyl-3-(4-((trifluoromethyl)thio)phenyl) imidazolidine-2,4-dione], 2 to 10 µM; for `Cc1cc2c(CN3C(=O)N(c4ccc(C5(C(F)(F)F)CC5)cc4)C(=O)C3(C)C)ccnc2[nH]1` [Compound 9, 5,5-dimethyl-1-((2-methyl-1H-pyrrolo[2,3-b]pyridin-4-yl)methyl)-3-(4-(1-(trifluoromethyl)cyclopropyl)phenyl) imidazolidine-2,4-dione], at most 0.5 µM.
As for `CC1(C)C(=O)N(c2ccc(C3(C#N)CC3)cc2)C(=O)N1Cc1ccnc(N)c1` [Compound 82, 1-(4-(3-((2-aminopyridin-4-yl)methyl)-4,4-dimethyl-2,5-dioxoimidazolidin-1-yl)phenyl)cyclopropane-1-carbonitrile], the IC50 was at most 0.5 µM.
For `CN(C)CC(=O)Nc1cc(CN2C(=O)N(c3ccc(SC(F)(F)F)cc3)C(=O)C2(C)C)ccn1` [Compound 348, N-(4-((5,5-dimethyl-2,4-dioxo-3-(4-((trifluoromethyl)thio)phenyl)imidazolidin-1-yl)methyl)pyridin-2-yl)-2-(dimethylamino)acetamide], the IC50 is at most 0.5 µM.
`CC1(C)C(=O)N(c2ccc(C3CCCCC3)cc2)C(=O)N1Cc1ccnc(N)c1` [Compound 87, 1-((2-aminopyridin-4-yl)methyl)-3-(4-cyclohexylphenyl)-5,5-dimethylimidazolidine-2,4-dione]: the IC50 was in the range of 0.5 to 2 µM.
The value for `Cc1ccccc1NC(=O)Nc1cc(CN2C(=O)N(c3ccc(SC(F)(F)F)cc3)C(=O)C2(C)C)ccn1` [Compound 366, 1-(4-((5,5-dimethyl-2,4-dioxo-3-(4-((trifluoromethyl)thio)phenyl)imidazolidin-1-yl)methyl)pyridin-2-yl)-3-(o-tolyl)urea] was at most 0.5 µM; that for `CC1(C)C(=O)N(c2ccc(CC(F)(F)F)cc2)C(=O)N1Cc1ccnc(N)c1` [Compound 94, 1-((2-aminopyridin-4-yl)methyl)-5,5-dimethyl-3-(4-(2,2,2-trifluoroethyl)phenyl)imidazolidine-2,4-dione] was at most 0.5 µM; that for `CC1(C)C(=O)N(c2ccc(SC(F)(F)F)cc2)C(=O)N1Cc1ccnc(NC(=O)NC2CCC(F)(F)C2)c1` (stereo not drawn) [Compound 374, 1-(3,3-difluorocyclopenty)-3-(4-((5,5-dimethyl-2,4-dioxo-3-(4-((trifluoromethyl)thio)phenyl)imidazolidin-1-yl)methyl)pyridin-2-yl)urea] was at most 0.5 µM.
With `CC1(C)C(=O)N(c2ccc(SC(F)(F)F)cc2)C(=O)N1Cc1ccnc(NC(=O)Nc2ccc(F)cc2)c1` [Compound 368, 1-(4-((5,5-dimethyl-2,4-dioxo-3-(4-((trifluoromethyl)thio)phenyl)imidazolidin-1-yl)methyl)pyridin-2-yl)-3-(4-fluorophenyl)urea], the IC50 was at most 0.5 µM.
For `CNC(=O)Nc1cc(CN2C(=O)N(c3ccc(SC(F)(F)F)cc3)C(=O)C2(C)C)ccn1` [Compound 361, 1-(4-((5,5-dimethyl-2,4-dioxo-3-(4-((trifluoromethyl)thio)phenyl)imidazolidin-1-yl)methyl)pyridin-2-yl)-3-methylurea], the IC50 was at most 0.5 µM.
